Entries after “also recorded” stand apart in the source; their conditions may differ.
What was measured:
[1] = tested on: sulfate reducing bacteria (SRB); assay: Biocidal effectiveness on sulfate reducing bacteria in spiked frac pond water, serial dilution counts over 180 days with challenges; format: cell-based; details: for control of SRB in frac pond water (summary in words): up to 180 days contact time, challenges at 14, 28 and 129 days
Description: (§1) In this example, the biocidal effectiveness on sulfate reducing bacteria (SRB) and acid producing bacteria (AB) for biocide formulations containing CB Thione and WB Thione to Glut and THPS was examined.
(§2) A one gallon sample was separated from a five gallon sample of frac pond water for these studies. The frac pond water sample included SRB and AB. Ten mL of a 10^9 cfu/mL inoculum of SRB grown in anaerobic API broth containing an O2 scavenger and 10 mL of a 10^9 cfu/mL inoculum of AB grown in anaerobic phenol red (anPR) broth containing an O2 scavenger were added to the one gallon frac pond water sample, mixed well and allowed to incubate for a period of time sufficient to achieve a desired number of SRB and AB. All broth media for inoculum and serial dilution counts in this study was made at 4% salinity to match the salinity of the original frac pond water measured by total dissolved solids testing. To increase nutrient value and to emulate on-site friction reducing additives, a 30 weight % acrylic acid, 70% acrylamide copolymer was added to the inoculated gallon of frac pond water sample at 300 ppm and then referred to as the spiked frac pond water sample. The spiked sample was then divided into 99.0 g aliquots for testing the effect of various biocides at various concentrations on the SRB and AB over a 180 day contact time. One spiked aliquot would serve as the control sample to which no biocide would be added. Challenges were made to all aliquots using 0.5 mL of 10^8 SRB and 0.5 mL, of 10^8 AB at 14, 28, and 129 days contact time.
(§3) The biocides included a 20% water based Thione (WB Thione), a 24% caustic based Thione (CB Thione), a 25% Glut, and a 35% THPS. Stock biocide solutions of various concentrations were made from these biocides as described below.
(§4) The WB Thione stock solutions were prepared by adding 3.0 g of the biocide to 17.0 g of sterile distilled water to form an intermediate solution, followed by combining each intermediate solution with water in the accounts shown in Table 1 below to make the descending concentrations as shown in Table 1.
(§5) The CB Thione stock solutions were prepared by adding 3.0 g of the biocide to 17.0 g of sterile distilled water to form an intermediate solution, followed by combining each intermediate solution with water in the amounts shown in Table 2 below to make the descending concentrations as shown in Table 2.
(§6) The Glut stock solutions were prepared by adding 1.0 g biocide to 19.0 g of sterile distilled water to form an intermediate solution, followed by combining each intermediate solution with water in the amounts shown in Table 3 below to make the descending concentrations as shown in Table 3.
(§7) The THPS stock solutions were prepared by adding 1.0 g of the biocide to 19.0 g of sterile distilled water to form an intermediate solution, followed by combining each intermediate solution with water in the amounts shown in Table 4 below to make the descending concentrations as shown in Table 4.
(§8) Next, 1 g of each biocide stock solution was added to the appropriately labeled 99.0 g aliquot. Also, 1.0 g of sterile water was added to the control aliquot. The concentrations of the biocides present in each aliquot are provided below in Table 5.
(§9) The aliquots were then incubated at room temperature in the dark for the entire study, i.e., 6 months. […] Using sterile syringes, this testing was performed by serial diluting the aliquots into sealed 9.0 mL anaerobic API broth and anaerobic PR broth bottles, both media containing an O2 scavenger, in the appropriate labeled set of SRB bottles (6 for each aliquot) mid AB bottles (6 for each aliquot) until a color change occurred, indicating the log quantity of organisms present in each aliquot.

[2] = tested on: acid producing bacteria (AB); assay: Biocidal effectiveness on acid producing bacteria in spiked frac pond water, serial dilution counts over 180 days with challenges; format: cell-based; details: for control of AB in frac pond water (summary in words): up to 180 days contact time, challenges at 14, 28 and 129 days
Description: as §1, §2, §3, §4, §5, §6, §7, §8, §9

[3] = Effect of biocide on the oxygen scavenger (oxygen reduction potential); format: physicochemical; details: 500 ppm biocide; 120 ppm SMBS; pH 6.4; FIG. 5
Description: In the following examples, an in-house constructed Inversion Loop was modified with a Grace M3500 viscometer for periodically measuring fluid viscosity as a function of time. The ORP apparatus included a HACH sensION pH meter with a combination ORP electrode. In Example 7, a friction loop apparatus was employed
To a beaker containing 500 milliliters of deionized water, a 120 ppm dose of sodium metabisulfite (SMBS) was added and the pH and oxygen reduction potential (ORP) were recorded. Once stabilized, phosphate buffer was added to increase the pH to 6.4 and the ORP recorded. Finally, the particular biocide tested was added at a concentration of 500 ppm. The ORP was recorded initially and after a period of 10 minutes.

[4] = 500 ppm as is (Glut, THPS), 7 Days
[5] = 500 ppm as is (Glut, THPS), 14 Days
[6] = 500 ppm as is (Glut, THPS), 21 Days
[7] = 500 ppm as is (Glut, THPS), 28 Days
[8] = 500 ppm as is (Glut, THPS), 35 Days
[9] = 500 ppm as is (Glut, THPS), 42 Days
[10] = 500 ppm as is (Glut, THPS), 58 Days
[11] = 500 ppm as is (Glut, THPS), 90 Days

O=CCCCC=O [Glut, glutaraldehyde]
Log 10 Anaerobic Sulfate Reducing Bacteria/mL ([1]; 50 ppm as is, 7 Days): 0 Log 10 Bacteria/mL | Log 10 Anaerobic Sulfate Reducing Bacteria/mL ([1]; 50 ppm as is, 14 Days): 0 Log 10 Bacteria/mL | Log 10 Anaerobic Sulfate Reducing Bacteria/mL ([1]; 50 ppm as is, 21 Days): 0 Log 10 Bacteria/mL | Log 10 Anaerobic Sulfate Reducing Bacteria/mL ([1]; 50 ppm as is, 28 Days): 0 Log 10 Bacteria/mL | Log 10 Anaerobic Sulfate Reducing Bacteria/mL ([1]; 50 ppm as is, 35 Days): ≧3 Log 10 Bacteria/mL | Log 10 Anaerobic Sulfate Reducing Bacteria/mL ([1]; 50 ppm as is, 42 Days): ≧6 Log 10 Bacteria/mL | Log 10 Anaerobic Sulfate Reducing Bacteria/mL ([1]; 50 ppm as is, 58 Days): ≧6 Log 10 Bacteria/mL | Log 10 Anaerobic Sulfate Reducing Bacteria/mL ([1]; 50 ppm as is, 90 Days): ≧5 Log 10 Bacteria/mL | Log 10 Anaerobic Sulfate Reducing Bacteria/mL ([1]; 100 ppm as is, 7 Days): 0 Log 10 Bacteria/mL | Log 10 Anaerobic Sulfate Reducing Bacteria/mL ([1]; 100 ppm as is, 14 Days): 0 Log 10 Bacteria/mL | Log 10 Anaerobic Sulfate Reducing Bacteria/mL ([1]; 100 ppm as is, 21 Days): 0 Log 10 Bacteria/mL | Log 10 Anaerobic Sulfate Reducing Bacteria/mL ([1]; 100 ppm as is, 28 Days): 0 Log 10 Bacteria/mL | Log 10 Anaerobic Sulfate Reducing Bacteria/mL ([1]; 100 ppm as is, 35 Days): ≧3 Log 10 Bacteria/mL | Log 10 Anaerobic Sulfate Reducing Bacteria/mL ([1]; 100 ppm as is, 42 Days): ≧6 Log 10 Bacteria/mL | Log 10 Anaerobic Sulfate Reducing Bacteria/mL ([1]; 100 ppm as is, 58 Days): ≧5 Log 10 Bacteria/mL | Log 10 Anaerobic Sulfate Reducing Bacteria/mL ([1]; 100 ppm as is, 90 Days): ≧5 Log 10 Bacteria/mL | Log 10 Anaerobic Sulfate Reducing Bacteria/mL ([1]; 200 ppm as is, 7 Days): 0 Log 10 Bacteria/mL | Log 10 Anaerobic Sulfate Reducing Bacteria/mL ([1]; 200 ppm as is, 14 Days): 0 Log 10 Bacteria/mL | Log 10 Anaerobic Sulfate Reducing Bacteria/mL ([1]; 200 ppm as is, 21 Days): 0 Log 10 Bacteria/mL | Log 10 Anaerobic Sulfate Reducing Bacteria/mL ([1]; 200 ppm as is, 28 Days): 0 Log 10 Bacteria/mL | Log 10 Anaerobic Sulfate Reducing Bacteria/mL ([1]; 200 ppm as is, 35 Days): ≧3 Log 10 Bacteria/mL | Log 10 Anaerobic Sulfate Reducing Bacteria/mL ([1]; 200 ppm as is, 42 Days): ≧6 Log 10 Bacteria/mL | Log 10 Anaerobic Sulfate Reducing Bacteria/mL ([1]; 200 ppm as is, 58 Days): ≧6 Log 10 Bacteria/mL | Log 10 Anaerobic Sulfate Reducing Bacteria/mL ([1]; 200 ppm as is, 90 Days): ≧6 Log 10 Bacteria/mL | Log 10 Anaerobic Sulfate Reducing Bacteria/mL [1, 4]: 0 Log 10 Bacteria/mL | Log 10 Anaerobic Sulfate Reducing Bacteria/mL [1, 5]: 0 Log 10 Bacteria/mL | Log 10 Anaerobic Sulfate Reducing Bacteria/mL [1, 6]: 0 Log 10 Bacteria/mL | Log 10 Anaerobic Sulfate Reducing Bacteria/mL [1, 7]: 0 Log 10 Bacteria/mL | Log 10 Anaerobic Sulfate Reducing Bacteria/mL [1, 8]: ≧3 Log 10 Bacteria/mL | Log 10 Anaerobic Sulfate Reducing Bacteria/mL [1, 9]: 5 Log 10 Bacteria/mL | Log 10 Anaerobic Sulfate Reducing Bacteria/mL [1, 10]: ≧6 Log 10 Bacteria/mL | Log 10 Anaerobic Sulfate Reducing Bacteria/mL [1, 11]: ≧6 Log 10 Bacteria/mL | control of SRB in frac pond water (summary in words) [1]: lost all control of SRB and AB after the 2nd challenge on day 28; also recorded: failed completely at all concentrations after challenging twice at 14 and 28 days contact time | Log 10 Anaerobic Acid Producing Bacteria/mL ([2]; 50 ppm as is, 7 Days): 0 Log 10 Bacteria/mL | Log 10 Anaerobic Acid Producing Bacteria/mL ([2]; 50 ppm as is, 14 Days): 0 Log 10 Bacteria/mL | Log 10 Anaerobic Acid Producing Bacteria/mL ([2]; 50 ppm as is, 21 Days): 1 Log 10 Bacteria/mL | Log 10 Anaerobic Acid Producing Bacteria/mL ([2]; 50 ppm as is, 28 Days): 0 Log 10 Bacteria/mL | Log 10 Anaerobic Acid Producing Bacteria/mL ([2]; 50 ppm as is, 35 Days): ≧3 Log 10 Bacteria/mL | Log 10 Anaerobic Acid Producing Bacteria/mL ([2]; 50 ppm as is, 42 Days): ≧6 Log 10 Bacteria/mL | Log 10 Anaerobic Acid Producing Bacteria/mL ([2]; 50 ppm as is, 58 Days): ≧6 Log 10 Bacteria/mL | Log 10 Anaerobic Acid Producing Bacteria/mL ([2]; 50 ppm as is, 90 Days): ≧5 Log 10 Bacteria/mL | Log 10 Anaerobic Acid Producing Bacteria/mL ([2]; 100 ppm as is, 7 Days): 0 Log 10 Bacteria/mL | Log 10 Anaerobic Acid Producing Bacteria/mL ([2]; 100 ppm as is, 14 Days): 0 Log 10 Bacteria/mL | Log 10 Anaerobic Acid Producing Bacteria/mL ([2]; 100 ppm as is, 21 Days): 0 Log 10 Bacteria/mL | Log 10 Anaerobic Acid Producing Bacteria/mL ([2]; 100 ppm as is, 28 Days): 0 Log 10 Bacteria/mL | Log 10 Anaerobic Acid Producing Bacteria/mL ([2]; 100 ppm as is, 35 Days): ≧3 Log 10 Bacteria/mL | Log 10 Anaerobic Acid Producing Bacteria/mL ([2]; 100 ppm as is, 42 Days): ≧6 Log 10 Bacteria/mL | Log 10 Anaerobic Acid Producing Bacteria/mL ([2]; 100 ppm as is, 58 Days): ≧6 Log 10 Bacteria/mL | Log 10 Anaerobic Acid Producing Bacteria/mL ([2]; 100 ppm as is, 90 Days): ≧6 Log 10 Bacteria/mL | Log 10 Anaerobic Acid Producing Bacteria/mL ([2]; 200 ppm as is, 7 Days): 0 Log 10 Bacteria/mL | Log 10 Anaerobic Acid Producing Bacteria/mL ([2]; 200 ppm as is, 14 Days): 1 Log 10 Bacteria/mL | Log 10 Anaerobic Acid Producing Bacteria/mL ([2]; 200 ppm as is, 21 Days): 0 Log 10 Bacteria/mL | Log 10 Anaerobic Acid Producing Bacteria/mL ([2]; 200 ppm as is, 28 Days): 0 Log 10 Bacteria/mL | Log 10 Anaerobic Acid Producing Bacteria/mL ([2]; 200 ppm as is, 35 Days): ≧3 Log 10 Bacteria/mL | Log 10 Anaerobic Acid Producing Bacteria/mL ([2]; 200 ppm as is, 42 Days): ≧5 Log 10 Bacteria/mL | Log 10 Anaerobic Acid Producing Bacteria/mL ([2]; 200 ppm as is, 58 Days): ≧6 Log 10 Bacteria/mL | Log 10 Anaerobic Acid Producing Bacteria/mL ([2]; 200 ppm as is, 90 Days): ≧6 Log 10 Bacteria/mL | Log 10 Anaerobic Acid Producing Bacteria/mL [2, 4]: 0 Log 10 Bacteria/mL | Log 10 Anaerobic Acid Producing Bacteria/mL [2, 5]: 0 Log 10 Bacteria/mL | Log 10 Anaerobic Acid Producing Bacteria/mL [2, 6]: 0 Log 10 Bacteria/mL | Log 10 Anaerobic Acid Producing Bacteria/mL [2, 7]: 0 Log 10 Bacteria/mL | Log 10 Anaerobic Acid Producing Bacteria/mL [2, 8]: ≧3 Log 10 Bacteria/mL | Log 10 Anaerobic Acid Producing Bacteria/mL [2, 9]: 4 Log 10 Bacteria/mL | Log 10 Anaerobic Acid Producing Bacteria/mL [2, 10]: ≧6 Log 10 Bacteria/mL | Log 10 Anaerobic Acid Producing Bacteria/mL [2, 11]: ≧6 Log 10 Bacteria/mL | control of AB in frac pond water (summary in words) [2]: lost all control of SRB and AB after the 2nd challenge on day 28 | ORP after 10 minutes of residence time [3]: increases nearly to the level of the DI H2O alone | ORP response upon initial addition of biocide [3]: does not significantly impact ORP

CN1CSC(=S)N(C)C1 [Thione, 3,5-dimethyl-1,3,5-thiadiazinane-2-thione]
control of SRB in frac pond water (summary in words) [1]: much more effective at inhibiting SRB and AB growth in frac water than the Glut and THPS treatments; also recorded: exceptional control over both the short and long term for SRB through 3 substantial challenges | control of AB in frac pond water (summary in words) [2]: much more effective at inhibiting SRB and AB growth in frac water than the Glut and THPS treatments
